Laboratory results: patent US11471462B2, “Compositions and methods for detecting and treating diabetes” (THE BROAD INSTITUTE, INC., priority 2016, dated 2022)

What follows are compounds tested on SLC16A11 (assay: SLC16A11 protein-protein interaction study (immunoprecipitation, quantitative mass spectrometry)). Settings: putative SLC16A11^REF interaction partners; immunoprecipitation from HEK293T cells vs empty vector control; Blandt-Altman.
Parameters: species or system human
Description: Alternatively, these variants may result in reduced transport because they disrupt protein-protein interactions responsible for correct SLC16A11 function. To explore this possibility, SLC16A11 was immunoprecipitated from HEK293T cells expressing either REF or T2D risk SLC16A11-V5 or empty vector control and quantitative mass spectrometry was used to define the SLC16A11 interactome.
Another mechanism through which the variants could affect activity is through disruption of protein-protein interactions. To explore this possibility, quantitative mass spectrometry-based protein-protein interaction studies were performed to define the SLC16A11 interactome and evaluate if the T2D risk coding variants alter any interactions.
Beads were then washed once with lysis buffer and three times with wash buffer. After the last wash, residual wash buffer was removed, 10 μL fresh wash buffer was added, and beads were stored at −80° C. until analysis by the Proteomics Platform at the Broad Institute, as detailed in the “Proteomics Methods for SLC16A11 Protein Interaction Studies” below.
The beads from immunopurification were washed once with IP lysis buffer, then three times with PBS, the three different lysates of each replicate were resuspended in 90 uL digestion buffer (2M Urea, 50 mM Tris HCl), 2 ug of sequencing grade trypsin added, 1 hour shaking at 700 rpm. The supernatant was removed and placed in a fresh tube. The beads were then washed twice with 50 uL digestion buffer and combined with the supernatant. The combined supernatants were reduced (2 uL 500 mM DTT, 30 minutes, RT), alkylated (4 uL 500 mM IAA, 45 minutes, dark) and a longer overnight digestion performed: 2 ug (4 uL) trypsin, shake o/n, The samples were then quenched with 20 uL 10% FA and desalted on 10 mg SepPak columns.
Desalted peptides were labelled with iTRAQ reagents according to the manufacturer's instructions (AB Sciex, Foster City, Calif.). Peptides were dissolved in 30 μl of 0.5 M TEAB pH 8.5 solution and labeling reagent was added in 70 ul of ethanol. After 1 h incubation the reaction was stopped with 50 mM Tris/HCl pH 7.5. Differentially labelled peptides were mixed and subsequently desalted on 10 mg SepPak columns.
Reconstituted peptides were separated on an online nanoflow EASY-nLC 1000 UHPLC system (Thermo Fisher Scientific) and analyzed on a benchtop Orbitrap Q Exactive Plus mass spectrometer (Thermo Fisher Scientific). The peptide samples were injected onto a capillary column (Picofrit with 10 μm tip opening/75 μm diameter, New Objective, PF360-75-10-N-5) packed in-house with 20 cm C18 silica material (1.9 μm ReproSil-Pur C18-AQ medium, Dr. Maisch GmbH, r119.aq). The UHPLC setup was connected with a custom-fit microadapting tee (360 μm, IDEX Health & Science, UH-753), and capillary columns were heated to 50° C. in column heater sleeves (Phoenix-ST) to reduce backpressure during UHPLC separation. Injected peptides were separated at a flow rate of 200 nL/min with a linear 80 min gradient from 100% solvent A (3% acetonitrile, 0.1% formic acid) to 30% solvent B (90% acetonitrile, 0.1% formic acid), followed by a linear 6 min gradient from 30% solvent B to 90% solvent B. Each sample was run for 120 min, including sample loading and column equilibration times. The Q Exactive instrument was operated in the data-dependent mode acquiring HCD MS/MS scans (R=17,500) after each MS1 scan (R=70,000) on the 12 top most abundant ions using an MS1 ion target of 3×10^6 ions and an MS2 target of 5×10^4 ions. The maximum ion time utilized for the MS/MS scans was 120 ms; the HCD-normalized collision energy was set to 27; the dynamic exclusion time was set to 20 s, and the peptide match and isotope exclusion functions were enabled.
All mass spectra were processed using the Spectrum Mill software package v6.0 pre-release (Agilent Technologies) which includes modules developed by us for iTRAQ-based quantification. […]

| Compound | BA log fold change |
| --- | --- |
| PSMD2 | 0.98 |
| KIAA0368 | 1.16 |
| PSMD14 | 1.31 |
| ATP1B3 | 1.18 |
| GCN1L1 | 1.01 |
| RNF5 | 1.42 |
| TUBA1B | 1.05 |
| PSMA1 | 1.20 |
| PSMD11 | 1.02 |
| SCFD1 | 1.08 |
| PSMC3 | 1.16 |
| BAG6 | 1.08 |
| EMB | 1.55 |
| DNAJB4 | 1.08 |

These compounds were tested on SLC16A11 (assay: CRISPR (SAM) transactivation assay, SLC16A11 expression in 293T cells). Settings: Cas9-based transactivators (SAM) targeted near variant.
Type: cell-based, human
Description: These experiments are based upon Cas9 based transactivators (SAM or synergistic activation mediators) as described in Konermann et al (Nature 517: 583-588, 2015). Similar experiments based on other types of transactivators that are more finely tuned to distal activation such as those described in Hilton et al. (Nature 33:510-518, 2015) could also be envisioned. Cas9 was used to target transactivators to sites near individual variants in the credible set. Their ability to activate SLC16A11 gene expression was assessed (Table 10).
Cell lines derived from HEK293-T cells were established by lentivirus infection resulting in stable integration of two components of the SAM system namely dCas9-VP64 and MS2-p65-HSF1. The resulting stable cell lines were then plated into 96 well plates and left overnight. The next day, cells were transfected with the guide RNAs (pHKO23), the final component of the SAM system. After an additional 48 hours, cells were harvested for gene expression analyses.

| Compound | Increases SLC16A11 transcript levels in transactivator assay |
| --- | --- |
| rs312457 (guide 1 TGATGAAACCTGGCCGGGCA; guide 2 GTGAGCCACCGTGCCCGGCC; listed as DNA, chemistry not given here; listed as Homo sapiens) | FALSE |
| rs145952323 (guide 1 CAAAAATTAGCCGGGTGTGT; guide 2 CAGGCACACGCCAACACACC; listed as DNA, chemistry not given here; listed as Homo sapiens) | FALSE |
| GTACATAATTCAATCCCCGT (chemistry not given here) | TRUE |
| TGGCAGTCCCCGCGTCACGT (chemistry not given here) | TRUE |
| rs193399 (guide 1 TAGAACCAGCTTCTAGGTTC; guide 2 TCCTTCCTGAACCTAGAAGC; listed as DNA, chemistry not given here; listed as Homo sapiens) | FALSE |
| TTACAGGCTTGCACCGCGCC (chemistry not given here) | TRUE |
| rs17203120 (guide 1 CTTATTTGATTTTATCTCAA; guide 2 TTATTTGATTTTATCTCAAA; listed as DNA, chemistry not given here; listed as Homo sapiens) | FALSE |
| rs58223766 (guide 1 TCAGGAGTTCGAGACCATCC; guide 2 GATCCACCCCCCCCCCCCCT; listed as DNA, chemistry not given here; listed as Homo sapiens) | FALSE |
| rs77552976 (guide 1 GAAAGGGCTGCCGTGCTGTT; guide 2 CCTGGCTGGACCTAACAGCA; listed as DNA, chemistry not given here; listed as Homo sapiens) | FALSE |
| rs78972129 (guide 1 GATGCTATGGTTGGCCACGC; guide 2 AGTACAGTACACAGCCTGCG; listed as DNA, chemistry not given here; listed as Homo sapiens) | FALSE |
| rs74577409 (guide 1 ACCTGCCGCCTGCTGCGCGC; guide 2 CCCTGCGCGCAGCAGGCGGC; listed as DNA, chemistry not given here; listed as Homo sapiens) | TRUE |
| ACGGAAACTGGCGCGCTCCA (chemistry not given here) | TRUE |
| TCACGCGCGGCTTGCCGGAT (chemistry not given here) | TRUE |

What follows are compounds tested on SLC16A11 (assay: Metabolic effectors on SLC16A11 transcript levels in SNU761 cells). Settings: 24 hours, low and high concentrations.
Type: cell-based, human
Protocol: (§1) FIG. 22 provides bar graphs showing the effects of low and high concentrations of metabolic effectors (oleic acid (OA), insulin and glucagon) on expression levels of SLC16A11 and SLC16A13 transcripts in SNU761 cells cultured for 24 hours in the presence of low/high concentrations of OA (0.3 mM/1.5 mM); insulin (100 nM/500 nM); or glucagon (100 nM/500 nM). Relative transcipt levels of SLC16A11 and SLC16A13 are shown, with 2-FBS (2% Fetal Bovine Serum) used as control.
(§2) FIG. 23 provides bar graphs showing the effects of low and high concentrations of pyruvate or lactate on expression levels of SLC16A11 and SLC16A13 transcripts in SNU761 cells cultured for 24 hours in the presence of 2 mM pyruvate (low), 10 mM pyruvate (high), 20 mM lactate (low), or 100 mM lactate (high). Relative transcipt levels of SLC16A11 and SLC16A13 are shown, compared with transcript levels in cell cultured in increasing concentrations of glucose.
(§3) To assess whether metabolic effectors regulated SLC16A11 and SLC16A13 transcript levels, endogenous transcripts in SNU761 cells (derived from a human hepatocellular carcinoma) were examined following exposure of the cells to different metabolic perturbations. SNU761 cells were cultured in the presence of various metabolic effectors for 24 hours after which time cell lysates were collected and the relative endogenous expression levels of SLC16A11 and SLC16A13 transcripts were assessed. The metabolic effectors included in the cell cultures included oleic acid (OA) at a low concentration (0.3 mM) or a high concentration (1.5 mM); insulin at a low concentration (100 nM) or a high concentration (500 nM) and glucagon at a low concentration (100 nM) and a high concentration (500 nM). Cells cultured in 2-FBS were used as a control. […] (FIG. 22). Similarly, SNU761 cells were cultured in the presence or absence of low or high concentrations of pyruvate or lactate in the culture medium for 24 hours after which time cell lysates were analyzed. In the cultures, low (L) pyruvate concentration was 2 mM; high (H) pyruvate concentration was 10 mM, and low lactate concentration was 20 mM, while high lactate concentration was 100 mM. […] (FIG. 23).

| Compound | SLC16A11 transcript levels |
| --- | --- |
| insulin: metabolic effector (hormone) | alter |
| CCCCCCCC/C=C\CCCCCCCC(=O)O [oleic acid] | alter |
| glucagon: metabolic effector (hormone) | alter |

Each compound was assayed on SLC16A13 (assay: Metabolic effectors on SLC16A13 transcript levels in SNU761 cells). Settings: 24 hours, low and high concentrations.
Type: cell-based, human
Protocol: as §1, §2, §3

| Compound | SLC16A13 transcript levels |
| --- | --- |
| insulin: metabolic effector (hormone) | alter |
| CCCCCCCC/C=C\CCCCCCCC(=O)O [oleic acid] | increase |
| glucagon: metabolic effector (hormone) | alter |
